Our source for the fold change (FC) and inhibition values is ChEMBL document CHEMBL5653631, “A Potent and Selective ULK1 Inhibitor Suppresses Autophagy and Sensitizes Cancer Cells to Nutrient Stress” (iScience, 2018).

The target of test [1] is T1, Mitogen-activated protein kinase kinase kinase 5 (Homo sapiens) (UniProt Q99683).
T1 sequence (whole entry): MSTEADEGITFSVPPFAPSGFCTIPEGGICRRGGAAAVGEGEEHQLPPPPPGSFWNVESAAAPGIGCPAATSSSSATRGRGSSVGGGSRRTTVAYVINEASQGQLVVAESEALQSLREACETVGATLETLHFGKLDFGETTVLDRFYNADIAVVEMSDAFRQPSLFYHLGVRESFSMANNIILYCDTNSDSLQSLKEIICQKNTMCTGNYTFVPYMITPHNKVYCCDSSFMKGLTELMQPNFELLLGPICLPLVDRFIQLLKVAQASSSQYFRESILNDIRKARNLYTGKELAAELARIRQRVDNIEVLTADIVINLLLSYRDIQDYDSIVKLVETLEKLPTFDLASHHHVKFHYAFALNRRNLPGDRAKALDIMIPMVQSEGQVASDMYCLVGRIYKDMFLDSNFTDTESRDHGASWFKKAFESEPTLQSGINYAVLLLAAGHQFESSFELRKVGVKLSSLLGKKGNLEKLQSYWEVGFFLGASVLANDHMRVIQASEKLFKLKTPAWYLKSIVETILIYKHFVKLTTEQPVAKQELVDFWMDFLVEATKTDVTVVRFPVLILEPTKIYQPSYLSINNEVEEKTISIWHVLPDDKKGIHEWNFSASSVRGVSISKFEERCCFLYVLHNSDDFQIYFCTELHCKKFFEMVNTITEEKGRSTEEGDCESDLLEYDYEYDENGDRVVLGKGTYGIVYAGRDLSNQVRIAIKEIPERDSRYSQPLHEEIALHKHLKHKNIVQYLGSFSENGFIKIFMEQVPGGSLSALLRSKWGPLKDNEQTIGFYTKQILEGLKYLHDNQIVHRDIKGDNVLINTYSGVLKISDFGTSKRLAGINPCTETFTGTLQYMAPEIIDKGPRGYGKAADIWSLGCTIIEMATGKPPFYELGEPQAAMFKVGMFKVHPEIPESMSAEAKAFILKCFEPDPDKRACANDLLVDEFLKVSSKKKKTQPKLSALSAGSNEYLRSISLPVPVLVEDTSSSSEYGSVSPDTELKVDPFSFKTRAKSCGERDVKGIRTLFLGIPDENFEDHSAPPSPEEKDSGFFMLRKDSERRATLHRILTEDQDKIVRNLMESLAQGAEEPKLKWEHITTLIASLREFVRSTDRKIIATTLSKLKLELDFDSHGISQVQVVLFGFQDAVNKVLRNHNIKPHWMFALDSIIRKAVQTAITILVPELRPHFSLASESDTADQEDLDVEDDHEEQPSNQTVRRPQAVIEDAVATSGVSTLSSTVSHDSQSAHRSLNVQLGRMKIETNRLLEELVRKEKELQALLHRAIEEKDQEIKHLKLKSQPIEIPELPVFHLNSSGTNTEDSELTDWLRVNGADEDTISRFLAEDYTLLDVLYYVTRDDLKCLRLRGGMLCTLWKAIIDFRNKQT
Kind of test: Inhibition of human recombinant MAP3K5 at 40 nM related to control ULK1.

Test [2] concerns the target T2, Tyrosine-protein kinase ZAP-70 (Homo sapiens) (UniProt P43403).
T2 sequence (whole entry): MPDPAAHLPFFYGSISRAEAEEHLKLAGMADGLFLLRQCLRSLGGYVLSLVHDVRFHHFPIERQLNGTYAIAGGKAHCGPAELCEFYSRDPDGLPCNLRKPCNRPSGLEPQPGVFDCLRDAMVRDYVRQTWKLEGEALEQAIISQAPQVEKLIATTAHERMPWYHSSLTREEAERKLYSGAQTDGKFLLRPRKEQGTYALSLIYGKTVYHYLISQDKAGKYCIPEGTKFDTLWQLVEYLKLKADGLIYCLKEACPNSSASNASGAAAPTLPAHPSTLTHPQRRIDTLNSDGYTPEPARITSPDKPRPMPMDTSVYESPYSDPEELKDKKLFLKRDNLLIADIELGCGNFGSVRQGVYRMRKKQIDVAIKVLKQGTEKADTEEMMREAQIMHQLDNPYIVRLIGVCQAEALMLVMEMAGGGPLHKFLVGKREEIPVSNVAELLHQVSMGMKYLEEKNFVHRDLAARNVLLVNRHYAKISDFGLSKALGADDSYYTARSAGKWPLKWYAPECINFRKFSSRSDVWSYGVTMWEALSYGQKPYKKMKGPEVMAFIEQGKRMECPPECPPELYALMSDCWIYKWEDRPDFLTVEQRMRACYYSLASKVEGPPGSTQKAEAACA
The test can be described thus: Inhibition of human recombinant ZAP70 at 40 nM related to control ULK1.

Test [3] concerns the target Serine/threonine-protein kinase 32C (Homo sapiens) (UniProt Q86UX6). The test can be described thus: Inhibition of human recombinant YANK3 at 40 nM in presence of ATP by radiometric assay relative to control.
Test [4] deals with Cyclin-dependent kinase 12 (Homo sapiens) (UniProt Q9NYV4). Kind of test: Inhibition of human recombinant CRK7 at 15 nM in presence of ATP by radiometric assay relative to control.
Sequence of Cyclin-dependent kinase 12 (Homo sapiens) (Q9NYV4 whole entry, looked up): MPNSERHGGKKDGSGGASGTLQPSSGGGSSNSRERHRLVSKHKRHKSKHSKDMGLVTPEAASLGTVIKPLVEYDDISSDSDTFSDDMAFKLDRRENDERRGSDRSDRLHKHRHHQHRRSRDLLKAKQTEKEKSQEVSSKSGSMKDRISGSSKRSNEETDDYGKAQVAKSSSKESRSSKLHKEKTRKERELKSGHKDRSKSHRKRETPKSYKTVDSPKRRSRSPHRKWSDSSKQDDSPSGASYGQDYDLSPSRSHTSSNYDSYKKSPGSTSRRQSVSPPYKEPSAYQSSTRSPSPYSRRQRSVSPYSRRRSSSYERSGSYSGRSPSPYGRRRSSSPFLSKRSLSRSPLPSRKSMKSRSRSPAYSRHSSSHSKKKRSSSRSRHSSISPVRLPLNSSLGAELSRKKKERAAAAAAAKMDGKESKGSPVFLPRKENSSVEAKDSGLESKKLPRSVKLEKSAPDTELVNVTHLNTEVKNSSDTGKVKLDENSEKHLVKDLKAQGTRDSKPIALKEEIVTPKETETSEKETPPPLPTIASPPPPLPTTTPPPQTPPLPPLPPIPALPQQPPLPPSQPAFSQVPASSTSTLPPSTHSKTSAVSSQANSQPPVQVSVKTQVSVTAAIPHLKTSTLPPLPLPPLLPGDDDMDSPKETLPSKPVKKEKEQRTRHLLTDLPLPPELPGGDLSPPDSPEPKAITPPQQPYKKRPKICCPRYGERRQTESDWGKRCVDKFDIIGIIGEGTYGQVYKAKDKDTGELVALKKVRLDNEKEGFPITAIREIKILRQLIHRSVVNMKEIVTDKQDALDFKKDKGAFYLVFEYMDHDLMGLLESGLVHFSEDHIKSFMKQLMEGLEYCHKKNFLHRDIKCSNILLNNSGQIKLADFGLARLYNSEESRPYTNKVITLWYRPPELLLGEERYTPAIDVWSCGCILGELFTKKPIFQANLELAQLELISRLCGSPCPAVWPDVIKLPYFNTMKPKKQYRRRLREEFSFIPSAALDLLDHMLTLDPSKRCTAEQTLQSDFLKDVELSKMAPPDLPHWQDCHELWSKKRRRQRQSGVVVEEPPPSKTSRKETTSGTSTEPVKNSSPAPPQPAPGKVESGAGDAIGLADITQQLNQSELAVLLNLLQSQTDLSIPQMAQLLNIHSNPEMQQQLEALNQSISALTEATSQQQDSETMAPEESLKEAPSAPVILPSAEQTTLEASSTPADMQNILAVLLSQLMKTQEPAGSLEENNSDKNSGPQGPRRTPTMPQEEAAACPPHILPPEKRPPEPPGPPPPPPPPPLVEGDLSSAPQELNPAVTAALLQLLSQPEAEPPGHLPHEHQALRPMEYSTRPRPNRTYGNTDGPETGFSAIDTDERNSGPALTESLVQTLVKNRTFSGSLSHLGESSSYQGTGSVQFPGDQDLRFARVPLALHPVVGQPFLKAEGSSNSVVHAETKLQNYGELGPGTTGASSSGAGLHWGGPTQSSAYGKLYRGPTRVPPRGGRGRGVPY

Sequence of Serine/threonine-protein kinase 32C (Homo sapiens) (Q86UX6 whole entry): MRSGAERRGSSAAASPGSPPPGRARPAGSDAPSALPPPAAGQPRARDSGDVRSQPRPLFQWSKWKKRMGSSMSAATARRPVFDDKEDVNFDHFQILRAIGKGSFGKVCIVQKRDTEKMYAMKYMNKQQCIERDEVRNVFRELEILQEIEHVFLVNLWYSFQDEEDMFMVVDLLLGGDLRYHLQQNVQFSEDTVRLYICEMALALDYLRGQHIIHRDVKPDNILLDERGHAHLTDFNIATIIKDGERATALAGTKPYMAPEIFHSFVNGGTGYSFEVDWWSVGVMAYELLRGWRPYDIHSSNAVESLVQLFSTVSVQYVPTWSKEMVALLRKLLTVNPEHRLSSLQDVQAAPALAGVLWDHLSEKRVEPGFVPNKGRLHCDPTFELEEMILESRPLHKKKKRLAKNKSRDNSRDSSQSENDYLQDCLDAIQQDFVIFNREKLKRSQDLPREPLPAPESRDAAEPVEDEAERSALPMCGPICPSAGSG

In general, inhibition refers to the percentage by which the read-out fell short of the control. Take `O=C(N[C@@H](C1CC1)C(F)(F)F)c1cc(-c2cnn3cc(-c4ccc(F)cc4)cnc23)cs1`: the fold change (FC) in test [1] and in test [2] was 0 throughout. Moreover, the inhibition in test [3] is 5%.

`CC(C)[C@H](NC(=O)c1cc(-c2cnn3cc(-c4ccc(OCCN5CCCCC5)cc4)cnc23)cs1)C(F)(F)F`: in test [4], the inhibition was 4%.
